Data: patent publication US10980787B2, “Drug for treating or preventing disorder caused by TGF-B signals, and application thereof” (THE DOSHISHA, priority 2015, dated 2021)

Assays:
[1] = tested on: immobilized human corneal endothelial cells (iFECD); experiment: Mitochondrial membrane potential decreased cells, JC-1 flow cytometry; type: cell-based; conditions: TGF-β2 10 ng/ml 30 hours, SB203580 10 μM, PH-797804 1 μM, VX-702 3 μM, compared to the TGF-β2 group or SB431542 10 μM group
Experimental: (§1) The medium was removed from a culture dish in which immobilized human corneal endothelial cells were being cultured, and the cells were supplemented with 1×PBS (−) that was preheated to 37° C., and were washed. This was repeated twice. The cells were supplemented again with 1×PBS (−) and incubated for 5 minutes at 37° C. (5% C02). After removing the PBS (−), the cells were supplemented with 0.05% Trypsin-EDTA (Nacalai Tesque, 35554-64) and incubated for 5 minutes at 37° C. (5% CO2). The cells were then suspended in a medium, and collected by centrifugation at 1500 rpm for 3 minutes. DMEM (Nacalai Tesque, 08456-94)+10% FBS (Biowest, S1820-500)+1% P/S (Nacalai Tesque, 26252-94) was used as the medium.
(§2) Immobilized human corneal endothelial cells (lot: iFECD3-5) were seeded on a 12-well plate at a ratio of 8×10^4 cells per well and cultured for 48 hours at 37° C. (5% CO2). DMEM+10% FBS+1% P/S was used as the medium.
(§3) After 48 hours, the medium was removed. Each inhibitor was added to culture the cells for 24 hours (pretreatment). DMSO (Dimethyl Sulfoxide Sterile-filtered) (Nacalai Tesque, 13408-64) was added to the control group and the TGF-β2 group. DMEM+2% FBS+1% P/S was used as the medium. […]
The samples prepared above were analyzed using BD Accuri C6 Flow Cytometer (BD).

[2] = tested on: immobilized human corneal endothelial cells (iFECD); experiment: Cell damage by TGF-β2 stimulation, phase differential microscope; type: cell-based; conditions: 24 h pretreatment, TGF-β2 10 ng/ml 27 hours, SB203580 10 μM, PH-797804 1 μM, VX-702 3 μM, SB431542 10 μM
Experimental: as §1, with “CO2).” for “C02).”, “P/S (penicillin-streptomycin mixture)” for “P/S”
as §2
After 48 hours, the medium was removed. Each inhibitor was added to culture the cells for 24 hours. DMSO (Dimethyl Sulfoxide Sterile-filtered) (Nacalai Tesque, 13408-64) was added to the control group and the TGF-52 group. DMEM+2% FBS+1% P/S was used as the medium.
After 24 hours, the medium was removed. A medium containing 10 ng/ml of Recombinant Human TGF-β2 (R&D systems, RND302-B2-002) and each inhibitor was added to culture the cells for 27 hours. […]

smad2 and smad3 = experiment: Western blot of phospho-smad2 and smad3 after TGF-β2 stimulation; type: cell-based, human; conditions: iFECD, TGF-β2 10 ng/ml 24 hours; SB431542 10 μM, SB203580 10 μM, PH-797804 1 μM, VX-702 3 μM
Excerpt: The same procedure as Example 4 was used. However, rabbit anti-Phospho-Smad2 antibody: 1000-fold dilution, rabbit anti-Phospho-Smad3 antibody: 1000-fold dilution, and mouse anti-GAPDH antibody: 3000-fold dilution were used as the primary antibodies.

[3] = tested on: Human corneal endothelial cells; experiment: Cryopreservation of corneal endothelial cells, trypan blue dye exclusion test; type: cell-based; conditions: SB203580 10 μM in KM BANKER, 3 days at −80° C.
Experimental: Human corneal endothelial cells cultured in an MSC-CM (MSC cultured medium) were used in the test. The medium was removed from a culture dish in which human corneal endothelial cells were being cultured, and the cells were supplemented with PBS (−) that was preheated to 37° C., and were washed. This was repeated twice. After removing the PBS (−), the cells were supplemented with TrypLE Select (×10) (GIBCO, A12177-01) and incubated for 10 minutes at 37° C. (5% CO2). SB203580 was added to KM BANKER, so that the final concentration was 10 μM. The control group was cryopreserved by supplementing a reagent solvent, dimethyl sulfoxide (DMSO) (Dimethyl Sulfoxide Sterile-filtered; Nacalai Tesque, 13408-64). After 3 days of storage at −80° C., the tube was thawed by being immersed in a 37° C. water bath. After thawing, the sample was washed in a medium. Live and dead cell counts were measured by trypan blue dye exclusion test.

[4] = tested on: Human corneal endothelial cells; experiment: Cell count 24 hours after thawing cryopreserved cells, CellTiter-Glo; type: cell-based; conditions: SB203580 10 μM, 24 hours after seeding thawed cells
Experimental: After thawing the cryopreserved cells by adding only DMSO, 10000 cells were seeded in a 96-well plate that was coated with laminin E8. SB203580 (Cayman, catalog number: 13067) was added so that the final concentration was 10 μM upon seeding. DMSO was added to the group to which SB203580 was not added. After 24 hours from seeding, CellTiter-Glo Luminescent Cell Viability Assay (Promega catalog number: G7570) was performed to measure luminescence.

[5] = cited from earlier work
[6] = tested on: immobilized human corneal endothelial cells (iFECD); experiment: Mitochondrial membrane potential, JC-1 stain, confocal microscope; type: cell-based; conditions: CCCP 50 μmol/L, 9 hours, uncoupling agent
Experimental: as §1, with “CO2).” for “C02).”
Immobilized human corneal endothelial cells (lot: iFECD3-5) were seeded on a 48-well plate at a ratio of 4×10^4 cells per well and cultured for 48 hours at 37° C. (5% CO2). DMEM+10% FBS+1% P/S was used as the medium.
as §3, with “The CCCP group” for “DMEM+2% FBS+1% P/S”, “supplemented with CCCP (abcam, ab141229), so that” for “used as”, “final concentration was 50 μmol/L, and cultured for 9 hours.” for “medium.”
Mitochondrial membrane potential was analyzed by the following procedure with a JC-1 stain. […]

Question: Which “percentage of mitochondrial membrane potential decreased cells” value [1] does the source give for `CNC(=O)c1ccc(C)c(-n2c(C)cc(OCc3ccc(F)cc3F)c(Br)c2=O)c1` [PH-797804, 3-[3-bromo-4-[(2,4-difluorophenyl)methoxy]-6-methyl-2-oxopyridin-1-yl]-N,4-dimethylbenzamide] here?
Answer: Its value is “comparable to or lower than the SB431542 added group”.

Question: Which “damage to corneal endothelial cells due to TGF-β2 stimulation” value [2] does the source give for `NC(=O)c1ccc(-c2nc(-c3ccc4c(c3)OCO4)c(-c3ccccn3)[nH]2)cc1` [SB431542] here?
Answer: The value was “suppressed”.

Question: And the “smad2 and smad3 (downstream of TGF-β signaling pathway) in western blot” value (smad2 and smad3)?
Answer: Its value is “not found”.

Question: For `C[S+]([O-])c1ccc(-c2nc(-c3ccncc3)c(-c3ccc(F)cc3)[nH]2)cc1` (stereo not drawn) [SB203580, 4-(4-fluorophenyl)-2-(4-methylsulfinylphenyl)-5-(4-pyridyl)-1H-imidazole], which “percentage of mitochondrial membrane potential decreased cells” value [1] is on record?
Answer: The value was “comparable to or lower than the SB431542 added group”.

Question: And the “cell viability immediately after thawing compared to DMSO” value [3]?
Answer: The value was “slightly higher”.

Question: And the “cell count compared to the DMSO-added group” value [4]?
Answer: The value was “about 1.3 fold”.

Question: And the solubility into methanol ([5]; methanol)?
Answer: Its solubility into methanol is “soluble”.

Question: What about the solubility into water ([5]; water) of the same molecule?
Answer: Its solubility into water is “difficult to dissolve”.

Question: With `N#CC(C#N)=NNc1cccc(Cl)c1` [CCCP] as the molecule, how does the “mitochondrial membrane potential (JC-1 red fluorescence)” value [6] read?
Answer: Its value is “not observed”.
